Assay results published in ChEMBL document CHEMBL5233277, “Oxidative Metabolism as a Modulator of Kratom's Biological Actions” (J Med Chem, 2021).

Assays:
[1] = Drug metabolism in human liver microsomes assessed as 3-dehydromitragynine formation at 1 uM incubated for 60 mins in absence of NADPH by LC-MS/MS analysis; format: ADME, Microsome; conditions: 1 h
Mus musculus = assay: Antinociceptive activity in sc dosed 129Sv6 mouse model assessed as peak effect measured at 15 mins by radiant heat tail flick assay; format: functional; conditions: 129Sv6, 0.25 h
[2] = Drug metabolism in C57BL/6J mouse brain assessed as mitragynine pseudoindoxyl formation at 30 mg/kg, po measured after 8 hrs by LC-MS/MS analysis; format: ADME, organism-based; conditions: in vivo
[3] = Drug metabolism in C57BL/6J mouse plasma assessed as mitragynine pseudoindoxyl formation at 30 mg/kg, po measured after 8 hrs by LC-MS/MS analysis; format: ADME, organism-based; conditions: in vivo
[4] = Drug metabolism in C57BL/6J mouse brain assessed as mitragynine pseudoindoxyl formation at 30 mg/kg, po measured after 20 mins by LC-MS/MS analysis; format: ADME, organism-based; conditions: in vivo
[5] = Drug concentration in 129Sv6 mouse brain at 10 mg/kg, sc measured after 15 mins by LC-MS/MS analysis; format: ADME, organism-based; conditions: read-out: Ct
[6] = Drug concentration in C57BL/6J mouse brain at 30 mg/kg, sc measured after 20 mins by LC-MS/MS analysis; format: ADME, organism-based; conditions: read-out: Ct
[7] = Drug concentration in C57BL/6J mouse brain at 30 mg/kg, po measured after 24 hrs by LC-MS/MS analysis; format: ADME, organism-based; conditions: in vivo, BLD = below limit of detection
[8] = Stability in C57BL/6J mouse liver microsomes assessed as half life at 1 uM incubated for 60 mins by LC-MS/MS analysis; format: ADME, Microsome; conditions: 1 h
[9] = Drug metabolism in human liver microsomes assessed as 3-dehydromitragynine formation at 1 uM incubated for 60 mins by LC-MS/MS analysis; format: ADME, Microsome; conditions: 1 h
[10] = Stability in human liver microsomes assessed as half life at 1 uM incubated for 60 mins by LC-MS/MS analysis; format: ADME, Microsome; conditions: 1 h
[11] = Drug metabolism in human S9 fractions assessed as 3-dehydromitragynine formation at 1 uM incubated for 60 mins in presence of NADPH by LC-MS/MS analysis; format: ADME, subcellular, S9 fraction; conditions: s9, 1 h
[12] = Stability in 129Sv6 mouse liver microsomes assessed as half life at 1 uM incubated for 60 mins by LC-MS/MS analysis; format: ADME, Microsome; conditions: 1 h
[13] = Drug concentration in 129Sv6 mouse brain at 10 mg/kg, po measured after 15 mins by LC-MS/MS analysis; format: ADME, organism-based; conditions: read-out: Ct
[14] = Drug metabolism in human S9 fraction assessed as compound depletion at 1 uM incubated for 60 mins in presence of NADPH by LC-MS/MS analysis; format: ADME, subcellular; conditions: s9, 1 h
[15] = Drug metabolism in C57BL/6J mouse brain assessed as 3-dehydromitragynine formation at ED80, po; format: ADME, tissue-based
Cytochrome P450 3A = Cytochrome P450 3A (Mus musculus, UniProt O09158+Q64464+Q64481+Q9JMA7); assay: Metabolic stability in 129Sv6 mouse liver microsomes assessed as CYP3A-mediated decomposition by measuring half life at 1 uM incubated for 60 mins in presence of ketoconazole by LC-MS/MS analysis; format: ADME, Microsome; conditions: 1 h
[16] = Drug metabolism in human liver microsomes assessed as mitragynine pseudoindoxyl formation at 1 uM incubated for 60 mins in presence of ketoconazole by LC-MS/MS analysis; format: ADME, Microsome; conditions: 1 h
[17] = Drug metabolism in human S9 fraction assessed as 3-dehydromitragynine formation at 1 uM incubated for 60 mins in presence of NADPH by LC-MS/MS analysis; format: ADME, subcellular; conditions: s9, 1 h
[18] = Drug metabolism in 129Sv6 mouse plasma assessed as mitragynine pseudoindoxyl formation at 10 mg/kg, po measured after 15 mins by LC-MS/MS analysis; format: ADME, organism-based; conditions: in vivo, 0.25 h
[19] = Drug metabolism in C57BL/6J mouse liver microsomes assessed as mitragynine pseudoindoxyl formation at 1 uM incubated for 60 mins in presence of ketoconazole by LC-MS/MS analysis; format: ADME, Microsome; conditions: 1 h

CC[C@@H]1CN2CCc3c([nH]c4cccc(OC)c34)[C@@H]2C[C@@H]1/C(=C\OC)C(=O)OC
Drug metabolism [1]: Metabolite_Detected
ED50 (Mus musculus): 57.3 mg/kg
Drug metabolism [2]: Metabolite_Notdetected
Drug metabolism [3]: Metabolite_Notdetected
Drug metabolism [4]: 40 nM
concentration at 0.25 h [5]: 30.1 µM
concentration at 20 min [6]: 9.74 µM
Ct [7]: Bld
t1/2 [8]: 5.9 min
Drug metabolism [9]: Metabolite_Detected
t1/2 [10]: 7.5 min
Drug metabolism [11]: Metabolite_Detected
t1/2 [12]: 13.5 min
concentration at 0.25 h [13]: 12.2 µM
Drug metabolism [14]: Metabolite_Detected
Drug metabolism [15]: 0.094 µM
t1/2 (Cytochrome P450 3A): 24.4 min
Drug metabolism [16]: Metabolite_Notdetected
Drug metabolism [17]: Metabolite_Detected
Drug metabolism [18]: 13 nM
Drug metabolism [19]: Metabolite_Notdetected
